The text below walks through data of publication PMC7144209, “Design, synthesis and anticancer activity of naphthoquinone derivatives” (Journal of Enzyme Inhibition and Medicinal Chemistry, 2020).

Structures are written as SMILES.

One series relates to MGC-803. The experiment in a line: MTT cell viability assay, MGC-803 cells. Type of series: cell-based. As to conditions: Homo sapiens, MGC-803, 48 h, n = 3. The procedure: (§1) MGC-803, SGC-7901, U87 and SMMC-7721 cell lines were cultured in DMEM supplemented with 10% foetal bovine serum, 100 IU/mL penicillin/streptomycin. The cells were incubated in an atmosphere containing 5% CO2 at 37 °C.
(§2) MGC-803, SGC-7901, U87 and SMMC-7721 cells were plated in 96-well plate at 7000 per well. Cells were incubated with the different concentrations of the compounds for 48 h. Subsequently, MTT (0.5 mg/mL) were used to test the cell viability, then 150 μL DMSO was added to each well after cells were incubated for 4 h and the absorbance was measured at 492 nm.
A general note: Tetrazolium dyes change colour on reduction, which living cells bring about.

Another series has as its system U87. The experiment in a line: MTT cell viability assay, U87 cells. Type of series: cell-based. As to conditions: Homo sapiens, U-87 MG, 48 h, n = 3. How it is done: as §1, §2
Series [1] relates to SGC-7901, MGC-803, SMMC-7721, U-87 cell lines. The experiment in a line: MTT anticancer activity, summary in words over the cell line panel. As to conditions: MTT assay. Type of series: cell-based. How it is done: as §2
Compounds 1–24 were detected for anticancer activities against SGC-7901, MGC-803, SMMC-7721, U-87 cell lines in vitro by the MTT assay, and ADM was used as the positive control. From Table 1, when the phenolic hydroxyls of naphthoquinone moiety were converted to ether, the activity was missing. […] So colony formation assay of this compound (Figure 4) was used to investigate the effect of it on cell proliferation in SGC-7901 cells. The experiment examined the ability for producing colonies after the cells were treated with the cell death agents[35]^,[36].

For the next series, the system named is L02. The experiment in a line: MTT cell viability assay, L02 cells. Format: cell-based. As to conditions: Homo sapiens, n = 3.
A further series relates to SMMC-7721. The experiment in a line: MTT cell viability assay, SMMC-7721 cells. Type of series: cell-based. As to conditions: Homo sapiens, 48 h, n = 3. The procedure: as §1, §2
The test system of the next series is SGC-7901. The experiment in a line: MTT cell viability assay, SGC-7901 cells. Type of series: cell-based, human. As to conditions: Homo sapiens, SGC-7901, 48 h, n = 3. How it is done: as §1, §2

`CC(C)=CCC(OC(=O)CCC(=O)Nc1ccc(F)c(C(F)(F)F)c1)C1=CC(=O)c2c(O)ccc(O)c2C1=O` (stereo not drawn) [Compound 11, 1-(5,8-dihydroxy-1,4-dioxo-1,4-dihydronaphthalen-2-yl)-4-methylpent-3-en-1-yl-4-((4-fluoro-3-(trifluoromethyl)phenyl)amino)-4-oxobutanoate]: the IC50 (in general, the midpoint of a concentration-inhibition curve) in the series with MGC-803 amounted to 8.4 ± 3.1 µM; in the series with U87, 3.75 ± 0.77 µM; with L02, 4 ± 0.1 µM; in the series with SMMC-7721 it was 9.5 ± 0.8 µM; with SGC-7901, 2.25 ± 1.5 µM. Moreover, the “anticancer activity (in words)” value in series [1] is given as “good activity”.

Regarding `CC(C)=CCC(OC(=O)CCC(=O)NCCc1cccc(Cl)c1)C1=CC(=O)c2c(O)ccc(O)c2C1=O` (stereo not drawn) [Compound 17, 1-(5,8-dihydroxy-1,4-dioxo-1,4-dihydronaphthalen-2-yl)-4-methylpent-3-en-1-yl-4-((3-chlorophenethyl)amino)-4-oxobutanoate], the IC50 amounted to 6.7 ± 2.4 µM in the series with MGC-803; 3.8 ± 1.7 µM in the series on U87; 11.4 ± 1.8 µM with L02; 15.9 ± 0.2 µM with SMMC-7721; 20.8 ± 0.5 µM with SGC-7901. Further, the “anticancer activity (in words)” value in series [1] is “good activity”.

On to `CC(C)=CCC(OC(=O)CCC(=O)N1CCCCC1)C1=CC(=O)c2c(O)ccc(O)c2C1=O` (stereo not drawn) [Compound 7, 1-(5,8-dihydroxy-1,4-dioxo-1,4-dihydronaphthalen-2-yl)-4-methylpent-3-en-1-yl-4-oxo-4-(piperidin-1-yl)butanoate], for which the melting point (as a rule, the temperature, or range, at which the solid turns liquid) turned out to be 120 °C. Also, the midpoint of inhibition with MGC-803, the IC50, lay at 9.7 ± 2.3 µM. Moreover, the concentration for half-maximal inhibition (IC50) in the series on U87 worked out at 9.68 ± 2.3 µM. In the series with L02, this molecule gave an IC50 of 36.8 ± 4.1 µM. Also, the half-maximal inhibitory concentration (IC50) with SMMC-7721 is 14.4 ± 1.5 µM. In the series with SGC-7901, this molecule returned an IC50 of 33.6 ± 2.1 µM.

Molecule `COc1cc(/C=C/CC(=O)OC(CC=C(C)C)C2=CC(=O)c3c(O)ccc(O)c3C2=O)cc(OC)c1OC` (stereo not drawn) [Compound 5, 1-(5,8-dihydroxy-1,4-dioxo-1,4-dihydronaphthalen-2-yl)-4-methylpent-3-en-1-yl (E)-4-(3,4,5-trimethoxyphenyl)but-3-enoate] yielded a melting point of 54 °C. The same molecule registered a half-maximal inhibitory concentration (IC50) in the series with MGC-803 of over 100 µM. Moreover, the half-inhibitory concentration (IC50) in the series on U87 is over 100 µM. For the same molecule, in the series on L02, the half-maximal inhibitory concentration (IC50) is over 100 µM. For the same molecule, in the series with SMMC-7721, the IC50 was over 100 µM. This molecule also displayed an IC50 with SGC-7901 of over 100 µM.

`CC(C)=CCC(OC(=O)CCC(=O)NCCc1ccccc1Cl)C1=CC(=O)c2c(O)ccc(O)c2C1=O` (stereo not drawn) [Compound 18, 1-(5,8-dihydroxy-1,4-dioxo-1,4-dihydronaphthalen-2-yl)-4-methylpent-3-en-1-yl-4-((2-chlorophenethyl)amino)-4-oxobutanoate] yielded a melting point of 97.8 °C. Besides, 6.6 ± 4.7 µM corresponded to half-maximal inhibition with MGC-803 (IC50). The molecule further showed a concentration for half-maximal inhibition (IC50) in the series with U87 of 7.7 ± 4.4 µM. The same molecule had an IC50 in the series with L02 of 20.2 ± 2 µM. The IC50 in the series with SMMC-7721 was 17.9 ± 1.6 µM. In the series with SGC-7901, this molecule showed an IC50 of 23.7 ± 0.5 µM.

In the case of `CC(C)=CCC(OC(=O)CCC(=O)NCCc1ccc(F)cc1)C1=CC(=O)c2c(O)ccc(O)c2C1=O` (stereo not drawn) [Compound 20, 1-(5,8-dihydroxy-1,4-dioxo-1,4-dihydronaphthalen-2-yl)-4-methylpent-3-en-1-yl 4-((4-fluorophenethyl)amino)-4-oxobutanoate], the 50% inhibitory concentration (IC50) in the series on MGC-803 was determined as 3.5 ± 1.4 µM; in the series with U87, 5.2 ± 1.4 µM; in the series with L02, 12.3 ± 0.5 µM; with SMMC-7721 it was 18.6 ± 3.6 µM; in the series on SGC-7901, 13.3 ± 0.6 µM. In addition, the “anticancer activity (in words)” value in series [1] was “good activity”.

As for `CC(C)=CCC(OC(=O)/C=C\C(=O)N1CCOCC1)C1=CC(=O)c2c(O)ccc(O)c2C1=O` (stereo not drawn) [Compound 24, 1-(5,8-dihydroxy-1,4-dioxo-1,4-dihydronaphthalen-2-yl)-4-methylpent-3-en-1-yl (Z)-4-morpholino-4-oxobut-2-enoate], the melting point was 104 °C. Also, the midpoint of inhibition in the series with MGC-803, the IC50, lay at 40.8 ± 1.9 µM. For the same molecule, in the series with U87, inhibition was half-maximal at 20.6 ± 0.6 µM (IC50). The IC50 in the series with L02 was over 100 µM. This molecule also had an IC50 in the series on SMMC-7721 of 50.1 ± 0.8 µM. In the series on SGC-7901, this molecule registered a 50% inhibitory concentration (IC50) of 38.5 ± 0.7 µM.

In turn, `CC(C)=CCC(OC(=O)CCC(=O)NCCc1ccccc1F)C1=CC(=O)c2c(O)ccc(O)c2C1=O` (stereo not drawn) [Compound 21, 1-(5,8-dihydroxy-1,4-dioxo-1,4-dihydronaphthalen-2-yl)-4-methylpent-3-en-1-yl 4-((2-fluorophenethyl)amino)-4-oxobutanoate] had a melting point of 91 °C. Also, in the series with MGC-803, the IC50 is 6.9 ± 3.9 µM. For the same molecule, in the series on U87, the 50% inhibitory concentration (IC50) was 6.1 ± 0.6 µM. In addition, in the series with L02, the IC50 was 16 ± 2.2 µM. Inhibition in the series on SMMC-7721 was half-maximal at 15.4 ± 0.4 µM (IC50). Also, the 50% inhibitory concentration (IC50) in the series with SGC-7901 was 14.8 ± 1.6 µM.

`CC(C)=CCC(OC(=O)CCc1ccccc1)C1=CC(=O)c2c(O)ccc(O)c2C1=O` (stereo not drawn) [Compound 3, 1-(5,8-dihydroxy-1,4-dioxo-1,4-dihydronaphthalen-2-yl)-4-methylpent-3-en-1-yl-3-phenylpropanoate]: the melting point stood at 60 °C. Moreover, the IC50 with MGC-803 turned out to be 4.5 ± 1.1 µM. This molecule came in with a 50% inhibitory concentration (IC50) in the series with U87 of 8 ± 0.85 µM. The midpoint of inhibition in the series on L02, the IC50, lay at 13.6 ± 1.5 µM. This molecule displayed an IC50 with SMMC-7721 of 15.6 ± 3.3 µM. In the series with SGC-7901, the IC50 was 10.6 ± 4.3 µM.

For the molecule `COc1ccc(OC)c2c1C(=O)C=C(C(O)CC=C(C)C)C2=O` (stereo not drawn) [Compound 1, 2-(1-hydroxy-4-methylpent-3-en-1-yl)-5,8-dimethoxynaphthalene-1,4-dione], the melting point came out at 94.3 °C. Further, the IC50 in the series with MGC-803 was over 100 µM. This molecule also gave a half-maximal inhibitory concentration (IC50) in the series with U87 of over 100 µM. In addition, the IC50 in the series on L02 is over 100 µM. Also, the IC50 in the series with SMMC-7721 was over 100 µM. Moreover, the IC50 with SGC-7901 was over 100 µM.

Molecule `COc1ccccc1NC(=O)CCC(=O)OC(CC=C(C)C)C1=CC(=O)c2c(O)ccc(O)c2C1=O` (stereo not drawn) [Compound 15, 1-(5,8-dihydroxy-1,4-dioxo-1,4-dihydronaphthalen-2-yl)-4-methylpent-3-en-1-yl-4-((2-methoxyphenyl)amino)-4-oxobutanoate] gave a melting point of 113 °C. This molecule also showed a half-maximal inhibitory concentration (IC50) with MGC-803 of over 100 µM. The molecule further came in with an IC50 in the series with U87 of over 100 µM. Also, in the series with L02, the 50% inhibitory concentration (IC50) was over 100 µM. The same molecule yielded an IC50 in the series with SMMC-7721 of over 100 µM. For the same molecule, the IC50 in the series on SGC-7901 was over 100 µM.

`CC(C)=CCC(O)C1=CC(=O)c2c(OCc3ccccc3)ccc(OCc3ccccc3)c2C1=O` (stereo not drawn) [Compound 2, 5,8-bis(benzyloxy)-2-(1-hydroxy-4-methylpent-3-en-1-yl)naphthalene-1,4-dione] showed a melting point of 60 °C. The same molecule displayed a half-maximal inhibitory concentration (IC50) in the series with MGC-803 of over 100 µM. Further, the IC50 with U87 was over 100 µM. For the same molecule, the IC50 in the series with L02 was over 100 µM. Besides, the concentration for half-maximal inhibition (IC50) in the series on SMMC-7721 is over 100 µM. The same molecule came in with an IC50 in the series with SGC-7901 of over 100 µM.

Regarding `COc1ccc(NC(=O)CCC(=O)OC(CC=C(C)C)C2=CC(=O)c3c(O)ccc(O)c3C2=O)cc1` (stereo not drawn) [Compound 10, 1-(5,8-dihydroxy-1,4-dioxo-1,4-dihydronaphthalen-2-yl)-4-methylpent-3-en-1-yl-4-((4-methoxyphenyl)amino)-4-oxobutanoate], the melting point amounted to 115 °C. Further, half-maximal inhibition in the series with MGC-803 (IC50) required 7.9 ± 1.8 µM. Half-maximal inhibition with U87 (IC50) required 12.3 ± 2.8 µM. The same molecule yielded an IC50 in the series with L02 of 11.9 ± 0.6 µM. This molecule also had an IC50 in the series with SMMC-7721 of 12.4 ± 2.6 µM. For the same molecule, the midpoint of inhibition in the series on SGC-7901, the IC50, lay at 11.1 ± 1.2 µM.

Molecule `CC(C)=CCC(OC(=O)COc1ccc(Cl)cc1)C1=CC(=O)c2c(O)ccc(O)c2C1=O` (stereo not drawn) [Compound 6, 1-(5,8-dihydroxy-1,4-dioxo-1,4-dihydronaphthalen-2-yl)-4-methylpent-3-en-1-yl-2-(4-chlorophenoxy)acetate] displayed a melting point of 102 °C. For the same molecule, the concentration for half-maximal inhibition (IC50) with MGC-803 is over 100 µM. For the same molecule, the IC50 in the series with U87 was over 100 µM. The 50% inhibitory concentration (IC50) with L02 is over 100 µM. Further, the IC50 in the series with SMMC-7721 is over 100 µM. In addition, in the series with SGC-7901, the half-maximal inhibitory concentration (IC50) was over 100 µM.
